# Target: PIK3CG (human) (UniProt P48736)
# Test: Assessment of PIK3CG Kinase Activity
# Chain of PIK3CG (human) (P48736 whole entry, looked up): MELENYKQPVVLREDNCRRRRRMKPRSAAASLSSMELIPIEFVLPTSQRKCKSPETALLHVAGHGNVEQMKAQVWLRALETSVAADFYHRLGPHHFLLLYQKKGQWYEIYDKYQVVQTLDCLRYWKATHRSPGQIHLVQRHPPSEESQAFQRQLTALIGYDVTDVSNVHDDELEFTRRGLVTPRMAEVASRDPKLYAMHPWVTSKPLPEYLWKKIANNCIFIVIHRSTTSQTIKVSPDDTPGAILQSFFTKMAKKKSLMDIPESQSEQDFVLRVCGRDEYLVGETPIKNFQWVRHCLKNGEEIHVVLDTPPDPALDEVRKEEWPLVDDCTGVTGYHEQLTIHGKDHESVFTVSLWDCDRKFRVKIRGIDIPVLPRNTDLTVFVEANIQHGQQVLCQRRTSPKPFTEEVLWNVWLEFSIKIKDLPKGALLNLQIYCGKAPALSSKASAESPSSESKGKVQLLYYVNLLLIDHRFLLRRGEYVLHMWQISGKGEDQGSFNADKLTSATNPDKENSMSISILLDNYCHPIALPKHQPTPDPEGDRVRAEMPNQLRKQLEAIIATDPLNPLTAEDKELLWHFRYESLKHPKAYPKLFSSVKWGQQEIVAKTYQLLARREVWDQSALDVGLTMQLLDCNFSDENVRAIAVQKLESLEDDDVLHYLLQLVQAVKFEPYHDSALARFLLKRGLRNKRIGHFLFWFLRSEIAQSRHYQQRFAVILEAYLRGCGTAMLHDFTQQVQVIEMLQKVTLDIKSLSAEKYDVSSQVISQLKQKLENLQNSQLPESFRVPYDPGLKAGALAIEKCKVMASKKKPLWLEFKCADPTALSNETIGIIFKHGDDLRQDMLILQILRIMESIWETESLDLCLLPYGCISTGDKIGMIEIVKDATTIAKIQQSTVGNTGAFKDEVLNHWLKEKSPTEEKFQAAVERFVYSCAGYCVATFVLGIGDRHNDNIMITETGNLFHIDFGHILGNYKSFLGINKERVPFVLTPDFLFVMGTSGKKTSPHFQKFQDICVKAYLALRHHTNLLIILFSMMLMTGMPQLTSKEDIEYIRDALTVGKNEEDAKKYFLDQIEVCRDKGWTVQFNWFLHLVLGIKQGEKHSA
row,IC50,Structure (SMILES)
1,< 800 nM,CC(C)(C)OC(=O)CCNC(=O)Nc1nc2c(s1)-c1c(c(C3CC3)nn1-c1ccccc1Cl)CC2
2,< 800 nM,Cc1c[nH]c(CCNC(=O)Nc2nc3c(s2)-c2c(c(-c4cccnc4)nn2-c2ccccc2Cl)CC3)n1
3,< 800 nM,O=C(NCc1cccc(CN2CCOCC2)n1)Nc1nc2c(s1)-c1c(c(-c3cncnc3)nn1-c1ccccc1Cl)CC2
4,< 800 nM,CCc1csc(CCNC(=O)Nc2nc3c(s2)-c2c(c(-c4cccnc4)nn2C2CCN(C4CCCC4)CC2)CC3)n1
5,< 800 nM,CCc1csc(CCNC(=O)Nc2nc3c(s2)-c2c(c(-c4cncnc4)nn2-c2ccccc2Cl)CC3)n1
6,< 800 nM,CCCn1cnc(CCNC(=O)Nc2nc3c(s2)-c2c(c(-c4ccccc4)nn2-c2cccc(Cl)c2)CC3)c1
7,< 800 nM,CCN1CCC2(CCN(C(=O)Nc3nc4c(s3)-c3c(c(-c5cccnc5)nn3-c3ccccc3Cl)CC4)C2)C1 (centres undefined)
8,< 800 nM,CN(C)C(=O)CNC(=O)Nc1nc2c(s1)-c1c(c(-c3cccnc3)nn1-c1ccccc1Cl)CC2
9,< 800 nM,C[C@@H](C(=O)N1CCC[C@@H]1CNC(=O)Nc1nc2c(s1)-c1c(c(-c3cncnc3)nn1-c1ccccc1Cl)CC2)N(C)C(=O)OC(C)(C)C
10,< 800 nM,O=C(NCCc1cccc(N2CCNC2=O)c1)Nc1nc2c(s1)-c1c(c(-c3cncnc3)nn1-c1ccccc1Cl)CC2
11,< 800 nM,Cn1cccc1CCNC(=O)Nc1nc2c(s1)-c1c(c(-c3cccnc3)nn1-c1ccccc1Cl)CC2
12,< 800 nM,CC(C)(C)OC(=O)N1CCCC(NC(=O)Nc2nc3c(s2)-c2c(c(-c4cncnc4)nn2-c2ccccc2Cl)CC3)C1 (centres undefined)
13,< 800 nM,Cc1nc[nH]c1-c1cccc(CNC(=O)Nc2nc3c(s2)-c2c(c(-c4cncnc4)nn2-c2ccccc2Cl)CC3)c1
14,< 800 nM,CN(C)C(=O)N1CCC[C@@H]1CNC(=O)Nc1nc2c(s1)-c1c(c(-c3cncnc3)nn1-c1ccccc1Cl)CC2
15,< 800 nM,O=C(NCCC(=O)N1CCCCC1)Nc1nc2c(s1)-c1c(c(-c3cncnc3)nn1-c1ccccc1Cl)CC2
16,< 800 nM,CN(C)CC(=O)N1CC[C@H](CNC(=O)Nc2nc3c(s2)-c2c(c(-c4cncnc4)nn2-c2ccccc2Cl)CC3)C1
17,< 800 nM,CN1CCC(CNC(=O)Nc2nc3c(s2)-c2c(c(-c4cccnc4)nn2-c2ccccc2Cl)CC3)CC1
18,< 800 nM,CC(C)c1noc(CCNC(=O)Nc2nc3c(s2)-c2c(c(-c4ccccc4)nn2-c2cccc(Cl)c2)CC3)n1
19,< 800 nM,CC(C)(C)OC(=O)N[C@H]1CC[C@H](CNC(=O)Nc2nc3c(s2)-c2c(c(-c4cccnc4)nn2-c2ccccc2Cl)CC3)CC1
20,< 800 nM,Cn1cc(CCNC(=O)Nc2nc3c(s2)-c2c(c(-c4cncnc4)nn2-c2ccccc2Cl)CC3)cn1
21,< 800 nM,CC(C)(C)OC(=O)N1CCN(c2cccc(NC(=O)Nc3nc4c(s3)-c3c(c(-c5cncnc5)nn3-c3ccccc3F)CC4)c2)CC1
22,< 800 nM,CC(C)(C)OC(=O)N1CCC(C(=O)N2CCC[C@@H]2CNC(=O)Nc2nc3c(s2)-c2c(c(-c4cncnc4)nn2-c2ccccc2Cl)CC3)C1 (some centres undefined)
23,< 800 nM,CNC(=O)[C@@H]1CCCC[C@H]1NC(=O)Nc1nc2c(s1)-c1c(c(-c3ccccc3)nn1-c1ccccc1Cl)CC2
24,< 800 nM,CN1CCC(n2nc(-c3cccnc3)c3c2-c2sc(NC(=O)NCCc4nc(C5CC5)no4)nc2CC3)CC1
25,< 800 nM,O=C(NC[C@@H]1CCCN1)Nc1nc2c(s1)-c1c(c(-c3cncnc3)nn1-c1ccccc1Cl)CC2
26,< 800 nM,CC(C)c1cnc(CCNC(=O)Nc2nc3c(s2)-c2c(c(-c4ccccc4)nn2-c2cccc(Cl)c2)CC3)o1
27,< 800 nM,Cn1cc(CCNC(=O)Nc2nc3c(s2)-c2c(c(-c4ccccc4)nn2-c2ccccc2Cl)CC3)cn1

row,IC50,Structure (SMILES)
1,< 800 nM,C[C@@H](NC(=O)Nc1nc2c(s1)-c1c(c(-c3ccccc3)nn1-c1ccccc1Cl)CC2)C(=O)N1CCN(C)CC1
2,< 800 nM,CN(Cc1cccc(CNC(=O)Nc2nc3c(s2)-c2c(c(-c4cccnc4)nn2-c2ccccc2Cl)CC3)c1)C(=O)OC(C)(C)C
3,< 800 nM,CCn1cnc(CCNC(=O)Nc2nc3c(s2)-c2c(c(-c4cccnc4)nn2-c2ccccc2Cl)CC3)c1
4,< 800 nM,O=C(NCc1ccc(-c2ncc[nH]2)cc1)Nc1nc2c(s1)-c1c(c(-c3cncnc3)nn1-c1ccccc1Cl)CC2
5,< 800 nM,O=C(NCCNS(=O)(=O)c1ccccn1)Nc1nc2c(s1)-c1c(c(-c3ccccc3)nn1-c1ccccc1Cl)CC2
6,< 800 nM,CCc1cnc(CCNC(=O)Nc2nc3c(s2)-c2c(c(C4CC4)nn2-c2ccccc2Cl)CC3)o1
7,< 800 nM,CC(C)(C)OC(=O)N1CCC(CNC(=O)Nc2nc3c(s2)-c2c(c(-c4cccnc4)nn2-c2ccccc2Cl)CC3)CC1
8,< 800 nM,CC(C)(C)OC(=O)N1CCCCC1CNC(=O)Nc1nc2c(s1)-c1c(c(-c3cccnc3)nn1-c1ccccc1Cl)CC2 (centres undefined)
9,< 800 nM,CC(C)(C)OC(=O)N1CCC[C@H]1CNC(=O)Nc1nc2c(s1)-c1c(c(-c3cncnc3)nn1-c1ccccc1Cl)CC2
10,< 800 nM,CC(C)(C)OC(=O)N1CCCCC1CNC(=O)Nc1nc2c(s1)-c1c(c(-c3cncnc3)nn1-c1ccccc1Cl)CC2 (centres undefined)
11,< 800 nM,CS(=O)(=O)c1cccc(CNC(=O)Nc2nc3c(s2)-c2c(c(-c4cncnc4)nn2-c2ccccc2Cl)CC3)c1
12,< 800 nM,O=C(NCCc1nc(C2CC2)no1)Nc1nc2c(s1)-c1c(c(Nc3ccccn3)nn1-c1ccccc1)CC2
13,< 800 nM,CC(C)S(=O)(=O)NCCNC(=O)Nc1nc2c(s1)-c1c(c(-c3ccccc3)nn1-c1ccccc1Cl)CC2
14,< 800 nM,CN(C)CCOc1cccc(CNC(=O)Nc2nc3c(s2)-c2c(c(-c4cncnc4)nn2-c2ccccc2Cl)CC3)c1
15,< 800 nM,O=C(NCc1ccc2cc[nH]c2c1)Nc1nc2c(s1)-c1c(c(-c3cncnc3)nn1-c1ccccc1Cl)CC2
16,< 800 nM,CN(C)C(=O)CCNC(=O)Nc1nc2c(s1)-c1c(c(-c3cccnc3)nn1C1CCN(C3CCCC3)CC1)CC2
17,< 800 nM,COC(=O)N1CC[C@H](CNC(=O)Nc2nc3c(s2)-c2c(c(-c4cncnc4)nn2-c2ccccc2Cl)CC3)C1
18,< 800 nM,CN1CCC(n2nc(-c3cncnc3)c3c2-c2sc(NC(=O)NC[C@H]4CCCN4C(=O)N4CCCC4)nc2CC3)CC1
19,< 800 nM,O=C(NCCN1CCOCC1)Nc1nc2c(s1)-c1c(c(-c3cncnc3)nn1-c1ccccc1F)CC2
20,< 800 nM,CCc1noc(CCNC(=O)Nc2nc3c(s2)-c2c(c(-c4ccccc4)nn2-c2cccc(Cl)c2)CC3)n1
21,< 800 nM,O=C(NC[C@H]1CCCN1C(=O)N1CCCCC1)Nc1nc2c(s1)-c1c(c(-c3cncnc3)nn1-c1ccccc1Cl)CC2
22,< 800 nM,N#Cc1cccc(CNC(=O)Nc2nc3c(s2)-c2c(c(-c4cncnc4)nn2-c2ccccc2Cl)CC3)c1
23,< 800 nM,Cn1ccnc1CNC(=O)Nc1nc2c(s1)-c1c(c(-c3cccnc3)nn1-c1ccccc1Cl)CC2
24,< 800 nM,C[C@@H](C(=O)N1CC[C@H](CNC(=O)Nc2nc3c(s2)-c2c(c(-c4cncnc4)nn2-c2ccccc2Cl)CC3)C1)N(C)C(=O)OC(C)(C)C
25,< 800 nM,CC(C)c1cnc(CCNC(=O)Nc2nc3c(s2)-c2c(c(-c4cncnc4)nn2-c2ccccc2Cl)CC3)o1
26,< 800 nM,O=C(Nc1nc2c(s1)-c1c(c(-c3cccnc3)nn1-c1ccccc1Cl)CC2)N1CCC(N2Cc3ccccc3NC2=O)C1 (centres undefined)
27,< 800 nM,CNC(=O)Nc1nc2c(s1)-c1c(c(-c3cncnc3)nn1-c1ccccc1F)CC2

row,IC50,Structure (SMILES)
1,< 800 nM,O=C(Nc1nc2c(s1)-c1c(c(-c3cccnc3)nn1-c1ccccc1Cl)CC2)NC1CCC(N2CCNC2=O)CC1 (centres undefined)
2,< 800 nM,O=C(Nc1cccc(N2CCNCC2)c1)Nc1nc2c(s1)-c1c(c(-c3cncnc3)nn1-c1ccccc1F)CC2
3,< 800 nM,O=C(NCc1ccccc1N1CCCCC1)Nc1nc2c(s1)-c1c(c(-c3cccnc3)nn1-c1ccccc1Cl)CC2
4,< 800 nM,CNC(=O)Nc1nc2c(s1)-c1c(c(-c3cncnc3)nn1-c1ccccc1Cl)CC2
5,< 800 nM,O=C(NCc1ccccc1-n1cccn1)Nc1nc2c(s1)-c1c(c(-c3cccnc3)nn1-c1ccccc1Cl)CC2
6,< 800 nM,O=C(NCc1ccc2nc[nH]c2c1)Nc1nc2c(s1)-c1c(c(-c3cncnc3)nn1-c1ccccc1Cl)CC2
7,< 800 nM,O=C(Nc1nc2c(s1)-c1c(c(-c3ccccc3)nn1-c1ccccc1Cl)CC2)NC1CCC(NS(=O)(=O)c2ccccc2)CC1 (centres undefined)
8,< 800 nM,CN1CCN(C(=O)CCCNC(=O)Nc2nc3c(s2)-c2c(c(-c4ccccc4)nn2-c2ccccc2Cl)CC3)CC1
9,< 800 nM,CC(C)(C)OC(=O)N1CCC[C@@H]1CNC(=O)Nc1nc2c(s1)-c1c(c(-c3cncnc3)nn1-c1ccccc1F)CC2
10,< 800 nM,CC(C)(C)OC(=O)NCc1cccc(CNC(=O)Nc2nc3c(s2)-c2c(c(-c4cccnc4)nn2-c2ccccc2Cl)CC3)c1
11,< 800 nM,CCc1cnc(CCNC(=O)Nc2nc3c(s2)-c2c(c(-c4cccnc4)nn2C2CCN(C4CCCC4)CC2)CC3)o1
12,< 800 nM,CN1CCN(C(=O)CCNC(=O)Nc2nc3c(s2)-c2c(c(-c4ccccc4)nn2-c2ccccc2Cl)CC3)CC1
13,< 800 nM,O=C(NCc1cccc(OC(F)(F)F)c1)Nc1nc2c(s1)-c1c(c(-c3cncnc3)nn1-c1ccccc1Cl)CC2
14,< 800 nM,O=C(Nc1nc2c(s1)-c1c(c(-c3cccnc3)nn1-c1ccccc1Cl)CC2)NC1CC1
15,< 800 nM,O=C(NCCc1ccncc1)Nc1nc2c(s1)-c1c(c(-c3cccnc3)nn1-c1ccccc1Cl)CC2
16,< 800 nM,CC(C)(C)OC(=O)CC1(O)CCN(C(=O)Nc2nc3c(s2)-c2c(c(-c4cccnc4)nn2-c2ccccc2Cl)CC3)CC1
17,< 800 nM,CN1CCC(n2nc(-c3cccnc3)c3c2-c2sc(NC(=O)NCc4cccc(N(C)C)c4)nc2CC3)CC1
18,< 800 nM,O=C(NC[C@@H]1CCNC1)Nc1nc2c(s1)-c1c(c(-c3cncnc3)nn1-c1ccccc1Cl)CC2
19,< 800 nM,CN(C)c1cccc(CNC(=O)Nc2nc3c(s2)-c2c(c(-c4cccnc4)nn2-c2ccccc2Cl)CC3)c1
20,< 800 nM,O=C(NCc1cccc(-c2ccccc2)c1)Nc1nc2c(s1)-c1c(c(-c3cncnc3)nn1-c1ccccc1Cl)CC2
21,< 800 nM,CNC(=O)[C@H](C)NC(=O)Nc1nc2c(s1)-c1c(c(-c3ccccc3)nn1-c1ccccc1Cl)CC2
22,< 800 nM,CC(C)c1cccc(CNC(=O)Nc2nc3c(s2)-c2c(c(-c4cccnc4)nn2-c2ccccc2Cl)CC3)c1
23,< 800 nM,NC(=O)Nc1nc2c(s1)-c1c(c(-c3cncnc3)nn1-c1ccccc1Cl)CC2
24,< 800 nM,CCN(CC)CCNC(=O)Nc1nc2c(s1)-c1c(c(-c3cncnc3)nn1-c1ccccc1Cl)CC2
25,< 800 nM,CC(C)c1nnc(CCNC(=O)Nc2nc3c(s2)-c2c(c(-c4cccnc4)nn2-c2ccccc2Cl)CC3)o1

# Reference: the Kinase Knowledgebase extract (Sharma et al. 2016)
